IC50 and GI50 data for eleven compounds are collected here from patent US20250179059A1 (The Regents of the University of California, priority 2021, published 2025).

SMILES strings stand for the structures. Where two headings read alike, the source gives them in different places.

In one assay the target is T1, human BRD4 bromodomain I (Homo sapiens, UniProt O60885).
T1 construct: human BRD4 bromodomain I [residues 44-170]; host or cells: E. coli
The assay is described as follows: Bromodomain binding assay (AlphaScreen), BRD4 BDI. The following applies: Table C1. As to the method:
Bromodomain Binding Assay
The bromodomain binding assay utilizes AlphaScreen technology. Compounds compete with a biotinylated peptide ligand (from histone H4: aa 1-21, K5/K8/K12/K16Ac-biotin) for binding to a hexahistidine (His6)-tagged bromodomain. Peptide binding is detected by fluorescence signal after singlet oxygen energy transfer from peptide-bound AlphaScreen streptavidin-coated donor beads to His6-tagged bromodomain-bound nickel-chelate acceptor beads (PerkinElmer). Briefly, 8 μL 2.5× bromodomain (E. coli expressed, N-terminal His6-tagged human BRD4 bromodomain II [based on Genbank NM_058243, residues 349-460] or N-terminal His6-tagged human BRD4 bromodomain I [residues 44-170]) in reaction buffer (50 mM HEPES [pH 7.5], 100 mM NaCl, 0.05% CHAPS, 0.1% BSA, 1% DMSO) is added to wells of an assay plate (384-well low flange white, flat bottom, polystyrene microplate, Corning #3572; buffer only is added to some wells as a negative control). A compound concentration series (10 concentrations, 3-fold serial dilutions previously prepared in 100% DMSO, or 100% DMSO only negative control) is delivered to the assay plate with an Echo 550 acoustic liquid handler (Labcyte), followed by plate centrifugation and incubation for 30 minutes at room temperature. Then 4 μL 5× biotinylated peptide ligand is added, followed by plate centrifugation and gentle shaking for 30 minutes at room temperature to mix. After this incubation, 4 μL 5× donor beads are added, and the plate is centrifuged, followed by brief gentle shaking to mix. Finally, 4 μL 5× acceptor beads are added, and the plate is centrifuged, followed by gentle shaking for 60 minutes at room temperature in the dark. AlphaScreen signal (excitation/emission: 680 nm/520-620 nm) is detected with an EnSpire multimode plate reader (PerkinElmer). Percentage peptide binding is plotted as a function of concentration, and curve fitting is used to determine competitive compound binding ICsos.

The target in assay [1] is T2, human BRD4 bromodomain II (Homo sapiens, UniProt O60885).
T2 construct: human BRD4 bromodomain II [based on Genbank NM_058243, residues 349-460]; host or cells: E. coli
The assay is described as follows: Bromodomain binding assay (AlphaScreen), BRD4 BDII. The following applies: AlphaScreen assay, read-out: BRD4 BDII IC50. The procedure, abridged: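 Tagged BRD4 BDI or BDII constructs, expressed in E. coli, competed against a K5/K8/K12/K16-acetylated biotin-H4 peptide. Proximity signal between bead pairs after room-temperature incubations gave concentration-response curves, from which IC50 was derived.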

The test system of assay [2] is human SKM-1 acute myeloid leukemia cells. The assay is described as follows: SKM-1 antiproliferation cell-based assay (ATPlite). The following applies: Homo sapiens, SKM-1, 96 h, SKM-1 antiproliferation assay, 4 days, Table C2. A digest of the protocol: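 Log-phase cells in RPMI 1640/15% FBS were seeded at 34722 cells/mL and exposed for 4 days to nine-concentration DMSO serial dilutions in triplicate. Viability was read as ATP luminescence (ATPlite 1step), and IC50 values came from variable-slope non-linear regression.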

Turning to `CC(=O)Nc1ccc(-c2cccc(-c3cc(N4CCNCC4)no3)c2O)cc1` [Example 3, N-(2′-Hydroxy-3′-(3-(piperazin-1-yl)isoxazol-5-yl)-[1,1′-biphenyl]-4-yl)acetamide], the values for the IC50 (at human BRD4 bromodomain I; in assay [1] (Table C1); in assay [1] (Table C2)) were above 100 nM, 10 to 100 nM and 10 to 100 nM, respectively.

With `CC(=O)Nc1ccc(-c2cccc(-c3cc(N4CCN(C)CC4)no3)c2O)cc1` [Example 6, N-(2′-Hydroxy-3′-(3-(4-methylpiperazin-1-yl)isoxazol-5-yl)-[1,1′-biphenyl]-4-yl)acetamide], the IC50 on human BRD4 bromodomain I is above 100 nM; in assay [1] (Table C1) it was 10 to 100 nM; in assay [1] (Table C2), 10 to 100 nM.

`CC(=O)Nc1ccc(-c2cccc(-c3cccc(N4CCOCC4)c3)c2O)cc1F` [Example 95, N-(3-Fluoro-2′-hydroxy-3″-morpholino-[1,1′:3′,1″-terphenyl]-4-yl)acetamide]: the IC50 at human BRD4 bromodomain I was above 100 nM; in assay [1] (Table C1), 10 to 100 nM; in assay [1] (Table C2), 10 to 100 nM.

As for `CC(=O)Nc1ccc(-c2cccc(-c3cccc(N4CCNCC4)c3)c2O)cc1F` [Example 109, N-(3-Fluoro-2′-hydroxy-3″-(piperazin-1-yl)-[1,1′:3′,1″-terphenyl]-4-yl)acetamide], the half-inhibitory concentration (IC50) at human BRD4 bromodomain I is above 100 nM; in assay [1] (Table C1), 1 to 10 nM; in assay [1] (Table C2) it was 1 to 10 nM. The compound further showed a GI50 in assay [2] of 300 to 3000 nM.

Take `CC(=O)Nc1ccc(-c2cccc(-c3ccnc(N4CCNCC4)c3)c2O)cc1F` [Example 163, N-(3-fluoro-2′-hydroxy-3′-(2-(piperazin-1-yl)pyridin-4-yl)-[1,1′-biphenyl]-4-yl)acetamide]: the IC50 on human BRD4 bromodomain I is above 100 nM; in assay [1] (Table C1) it was 1 to 10 nM; in assay [1] (Table C2), 1 to 10 nM. Besides, the GI50 in assay [2] lay in the range of 30 to 300 nM.

Turning to `CC(=O)Nc1ccc(-c2cccc(-c3cccc(N4CCNCC4)c3)c2O)cc1Cl` [Example 171, N-(3-chloro-2′-hydroxy-3″-(piperazin-1-yl)-[1,1′:3′,1″-terphenyl]-4-yl)acetamide], the IC50 on human BRD4 bromodomain I is above 100 nM; in assay [1] (Table C1) it was 1 to 10 nM; in assay [1] (Table C2), 1 to 10 nM.

On to `CN1CCN(c2ccc(-c3cccc(-c4ccnc(N5CCNCC5)c4)c3O)cc2Cl)C1=O` [Example 245, 1-(3-Chloro-2′-hydroxy-3′-(2-(piperazin-1-yl)pyridin-4-yl)-[1,1′-biphenyl]-4-yl)-3-methylimidazolidin-2-one], for which the IC50 on human BRD4 bromodomain I was above 100 nM; in assay [1] (Table C1), 1 to 10 nM; in assay [1] (Table C2) it was 1 to 10 nM. In addition, the 50% growth inhibitory concentration (GI50) in assay [2] was 30 to 300 nM.

With `CN1CCN(c2ccc(-c3cc(F)cc(-c4ccnc(N5CCNCC5)c4)c3O)cc2Cl)C1=O` [Example 297, 1-(3-chloro-5′-fluoro-2′-hydroxy-3′-(2-(piperazin-1-yl)pyridin-4-yl)-[1,1′-biphenyl]-4-yl)-3-methylimidazolidin-2-one], the concentration for half-maximal inhibition (IC50) was above 100 nM at human BRD4 bromodomain I, 1 to 10 nM in assay [1] (Table C1) and 1 to 10 nM in assay [1] (Table C2). In assay [2], this compound had a 50% growth inhibitory concentration (GI50) of 30 to 300 nM.

As to `Cn1ccn(-c2ccc(-c3cc(F)cc(-c4ccnc(N5CCNCC5)c4)c3O)cc2Cl)c1=O` [Example 365, 1-(3-chloro-5′-fluoro-2′-hydroxy-3′-(2-(piperazin-1-yl)pyridin-4-yl)-[1,1′-biphenyl]-4-yl)-3-methyl-1H-imidazol-2(3H)-one], the IC50 was above 100 nM on human BRD4 bromodomain I, 1 to 10 nM in assay [1] (Table C1) and 1 to 10 nM in assay [1] (Table C2). The same compound came in with a concentration for 50% growth inhibition (GI50) in assay [2] of 0.3 to 30 nM.

As for `C[C@@H]1CN(c2cc(-c3cc(F)cc(-c4ccc(-n5ccn(C)c5=O)c(Cl)c4)c3O)ccn2)CCN1` [Example 413, (R)-1-(3-chloro-5′-fluoro-2′-hydroxy-3′-(2-(3-methylpiperazin-1-yl)pyridin-4-yl)-[1,1′-biphenyl]-4-yl)-3-methyl-1H-imidazol-2(3H)-one], the figures for the IC50 (at human BRD4 bromodomain I; in assay [1] (Table C1); in assay [1] (Table C2)) were above 100 nM, 0.01 to 1 nM and 0.01 to 1 nM, respectively. In assay [2], this compound came in with a GI50 of 0.3 to 30 nM.

Consider `CN1CCN(c2ccc(-c3cc(F)cc(-c4ccc(OC5CCNCC5)nc4)c3O)cc2Cl)C1=O` [compound 446, 1-(3-chloro-5′-fluoro-2′-hydroxy-3′-(6-(piperidin-4-yloxy)pyridin-3-yl)-[1,1′-biphenyl]-4-yl)-3-methylimidazolidin-2-one], for which the IC50 in assay [1] (Table C2) lay in the range of 10 to 100 nM. The compound also displayed a GI50 in assay [2] of 300 to 3000 nM.
